Laboratory results taken from US20260193285A1, “GRAMINE-PLATINUM (IV) COMPLEX AS WELL AS PREPARATION METHOD THEREFOR AND ANTI-TUMOR USE THEREOF” (TIANJIN MEDICAL UNIVERSITY CANCER INSTITUTE & HOSPITAL, priority 2022, published 2026).
Values joined by “and” are separate entries in the source; they are usually repeats but may differ in a detail not shown here. Equal values may be shown once.

Columns and labels:
[1] = tested on: pancreatic cancer cells CFPAC-1; test: CCK-8 inhibition of pancreatic cancer cells, CFPAC-1; type: cell-based; conditions: CCK-8, 72 hours
Method: (§1) In this experiment, CCK-8 was used to study the proliferation activity of pancreatic cancer cells SU86.86, MIA-PaCa2, SW1990, CFPAC-1 and BxPC-3. All cell lines were cultured in an incubator with 5% CO2 and saturated humidity at 37° C. The experimental steps were as follows:
(§2) The cells in logarithmic growth phase were collected, counted, adjusted to a cell concentration of 3×10^4 cells/mL, and then seeded into a 96-well plate at 100 μL/well. The blank group (Blank, medium group without cells) and the control group (Control, medium group with cells) were set up. After the cells in the culture plate were cultured overnight in the incubator with saturated humidity at 37° C. and adhered, the compounds were diluted with culture medium and added to the first column of administration wells at a desired concentration for these wells, followed by the 2-fold serial dilution and administration at 18 concentrations in total, and pipetted gently to mix well. After incubation for 72 hours, 10 μL of CCK8 solution (5 mg/mL) was added to each well. After cultivation in the incubator for another 4 hours, the OD value was measured using a microplate-reader at λ=450 nm.

[2] = tested on: MCF-7 (human breast cancer cells); test: In vitro anti-tumor activity assay (MTT), MCF-7; type: cell-based; conditions: average of multiple measurements
Excerpt: (§3) In this assay, the anti-tumor activity of the synthesized compounds was studied by MTT (3-(4,5-dimethylthiazolyl-2)-2,5-diphenyltetrazolium bromide) method. Eight kinds of cancer cells including MDA-MB-231 (human breast cancer cells), MCF-7 (human breast cancer cells), HCT-116 (human colon cancer cells), HeLa (human cervical cancer cells), FaDu (human pharyngeal squamous carcinoma cells), 5637 (human bladder cancer cells), OVCAR3 (human ovarian cancer cells), HCCC9810 (human liver cancer cells) and one normal human cell line LO2 (human liver cells) were used in this assay to perform experimental research on cytotoxicity. All cell lines were cultured in an incubator with 5% CO2 and saturated humidity at 37° C. The specific experimental steps were as follows:
(§4) The cells in logarithmic growth phase were collected, counted, adjusted to a cell concentration of 3× 10^4 cells/mL, and then seeded into a 96-well plate at 100 μL/well. The blank group (Blank, pure medium group) and the control group (Control, no drug group) were set up. The plate was cultured overnight in a cell culture incubator. After adhesion, the compounds were diluted with culture medium and added to the first column of administration wells at a desired concentration for these wells, followed by the 2-fold serial dilution and administration in subsequent wells, and pipetted gently to mix well. After incubation for 72 hours, 10 μL of MTT solution (5 mg/mL) was added to each well. After cultivation in the incubator for another 4 hours, the supernatant was removed, and DMSO was added at 100 μL/well. After shaking thoroughly, the OD value was measured using a microplate-reader at […]. Three independently repeated experiments were carried out to ensure the reliability of the experimental results.

[3] = tested on: pancreatic cancer cells SU86.86; test: CCK-8 inhibition of pancreatic cancer cells, SU86.86; type: cell-based; conditions: CCK-8, 72 hours
Method: as §1, §2

[4] = tested on: pancreatic cancer cells MIA-PaCa2; test: CCK-8 inhibition of pancreatic cancer cells, MIA-PaCa2; type: cell-based; conditions: CCK-8, 72 hours
Method: as §1, §2

[5] = tested on: pancreatic cancer organoids from patients; test: In vitro organoid activity assay, pancreatic cancer; type: cell-based, human; conditions: 96 hours, CellTiter-Glo 3D, one value per case; read-out: IC50 in organoid models of 2 cases of pancreatic cancer
Method: (§5) The experimental steps were as follows:
(§6) Tumor samples were obtained from the patients undergoing surgery for breast cancer and pancreatic cancer, and digested with tumor dissociation kits. Tumor suspensions were collected and centrifuged to obtain tumor organoids. Complete culture medium for breast cancer or pancreatic cancer organoids was added to the organoid models which were cultured and passaged under the culture conditions of 5% CO2 and saturated humidity at 37° C. The organoids in logarithmic growth phase were collected, counted, resuspended in Matrigel at an organoid concentration of 5×10^4 cells/mL, and then seeded into a 96-well plate at 20 μL/well, followed by further addition of 80 μL of complete medium. The blank group (Blank, medium group without organoids) and the control group (Control, medium group with organoids) were set up. After the organoids were cultured overnight in an incubator with 5% CO2 at 37° C. and adhered, 200 μL of the culture medium containing the drug at a concentration of 20 μM was added to the first administration well, followed by the 2-fold serial dilution and administration, and pipetted gently to mix well. After incubation for 96 hours, representative photos were taken for each well using an inverted microscope, and 10 μL of CellTiter-Glo 3D Reagent (Promega) solution was added to each well to detect the organoid viability.

[6] = tested on: MDA-MB-231 (human breast cancer cells); test: In vitro anti-tumor activity assay (MTT), MDA-MB-231; type: cell-based; conditions: for IC50: 72 hours, MTT, average of multiple measurements
Excerpt: as §3, §4

[7] = tested on: HeLa (human cervical cancer cells); test: In vitro anti-tumor activity assay (MTT), HeLa; type: cell-based; conditions: 72 hours, average of multiple measurements
Excerpt: as §3, §4

LO2 (human liver cells) = test: Cytotoxicity (MTT) on normal cell line LO2; type: cell-based; conditions: 72 hours
Excerpt: as §3, §4

[8] = tested on: HCT-116 (human colon cancer cells); test: In vitro anti-tumor activity assay (MTT), HCT-116; type: cell-based; conditions: average of multiple measurements
Excerpt: as §3, §4

KPC tumor model = test: In vivo anti-tumor activity, pancreatic cancer KPC model; conditions: for tumor inhibition rate at the treatment endpoint: Pt 3.0 mg/kg once every 3 days, five times; for PD-1 level in tumors (flow cytometry): solvent control 15.7%; for final survival rate: dead includes body weight decrease of more than 20%
Method: Firstly, a KPC tumor model was established using C57BL/6 female mice 4-5 weeks old. […] The drugs were formulated at a Pt concentration of 3.0 mg/kg, once every 3 days and five times in total, while the body weight and tumor volume of the mice were measured every 3 days. The mice were sacrificed and the organs (heart, liver, spleen, lung, kidney) and tumors thereof were excised. The tumors were used for flow cytometry to determine the content of immune cells.

[9] = tested on: pancreatic cancer cells BxPC-3; test: CCK-8 inhibition of pancreatic cancer cells, BxPC-3; type: cell-based; conditions: CCK-8, 72 hours
Method: as §1, §2

[10] = tested on: Patient-derived xenografts (PDXs) of pancreatic cancer; test: In vivo anti-tumor activity, pancreatic cancer PDX model; conditions: for tumor inhibition rate at the treatment endpoint: Pt 3.0 mg/kg once every 3 days, five times; for final survival rate: dead includes body weight decrease of more than 20%
Method: Patient-derived xenografts (PDXs) were used. Fresh tumor tissue from a patient was treated and transplanted subcutaneously into the groin of immunodeficient NOD-SCID IL-2 receptor gamma null (NSG) mice. […] The successfully transplanted tumor was passaged for 3 passages or more in NSG mice to obtain mouse models for experiments. […] The drugs were formulated at a Pt concentration of 3.0 mg/kg, once every 3 days and five times in total, while the body weight and tumor volume of the mice were measured every 3 days. The mice were sacrificed and the organs (heart, liver, spleen, lung, kidney) and tumors thereof were excised. The organs and tumors were used for ICP-MS determination of platinum content.

[11] = tested on: pancreatic cancer cells SW1990; test: CCK-8 inhibition of pancreatic cancer cells, SW1990; type: cell-based; conditions: CCK-8, 72 hours
Method: as §1, §2

4T1-Luc tumor model = test: In vivo anti-tumor activity, breast cancer 4T1-Luc tumor model; conditions: for final survival rate: dead includes body weight decrease of more than 20%
Method: Firstly, a 4T1-Luc tumor model was established using Balb/c female mice 4-5 weeks old. After the tumor volume reached […], the mice were randomly divided into four groups, namely Solvent, Cisplatin, Cisplatin+Gramine, and Compound c groups, respectively. The drugs were formulated at a Pt concentration of 2.0 mg/kg, once every 3 days and six times in total, while the body weight and tumor volume of the mice were measured every 2 days. The mice were sacrificed and the organs (heart, liver, spleen, lung, kidney) and tumors thereof were excised. The organs and tumors were used for H&E staining, immunohistochemical staining, and ICP-MS determination of platinum content.

[12] = tested on: HCCC9810 (human liver cancer cells); test: In vitro anti-tumor activity assay (MTT), HCCC9810; type: cell-based; conditions: 72 hours, average of multiple measurements, read-out: IC50 HCCC 9810
Excerpt: as §3
(§7) The cells in logarithmic growth phase were collected, counted, adjusted to a cell concentration of 3× 10^4 cells/mL, and then seeded into a 96-well plate at 100 μL/well. The blank group (Blank, pure medium group) and the control group (Control, no drug group) were set up. The plate was cultured overnight in a cell culture incubator. […] After shaking thoroughly, the OD value was measured using a microplate-reader at 2=570 nm. […]

[13] = tested on: 5637 (human bladder cancer cells); test: In vitro anti-tumor activity assay (MTT), 5637; type: cell-based; conditions: 72 hours, average of multiple measurements
Excerpt: as §3, §7

[14] = tested on: FaDu (human pharyngeal squamous carcinoma cells); test: In vitro anti-tumor activity assay (MTT), FaDu; type: cell-based; conditions: 72 hours, average of multiple measurements
Excerpt: as §3, §7

[15] = tested on: breast cancer organoids from patients; test: In vitro organoid activity assay, breast cancer; type: cell-based, human; conditions: 96 hours, CellTiter-Glo 3D, one value per case; read-out: IC50 in organoid models of 2 cases of breast cancer
Method: as §5, §6

[16] = tested on: OVCAR3 (human ovarian cancer cells); test: In vitro anti-tumor activity assay (MTT), OVCAR3; type: cell-based; conditions: 72 hours, average of multiple measurements, read-out: IC50 OVCRA3
Excerpt: as §3, §7

[17] = pancreatic cancer KPC, Pt 3.0 mg/kg
[18] = pancreatic cancer PDX, Pt 3.0 mg/kg
[19] = 4T1-Luc, Pt 2.0 mg/kg once every 3 days, six times

Compound	IC50 [1]	IC50 ([2]; 72 hours)	IC50 [3]	IC50 [4]	IC50 [6]	IC50 [7]	IC50 (LO2 (human liver cells))	IC50 ([8]; 72 hours)	tumor inhibition rate at the treatment endpoint (KPC tumor model; pancreatic cancer KPC)	PD-1 level in tumors (flow cytometry) (KPC tumor model; [17])	IC50 [9]	body weight change of mice [10, 18]	tumor inhibition rate at the treatment endpoint ([10]; pancreatic cancer PDX)	final survival rate [10, 18]	IC50 [11]	final survival rate (KPC tumor model; [17])	H&E staining: damage to tumor tissues (4T1-Luc tumor model; 4T1-Luc, Pt 2.0 mg/kg)	final survival rate (4T1-Luc tumor model; 4T1-Luc, Pt 2.0 mg/kg)	also measured
O=C1[O][Pt]2([NH][C@@H]3CCCC[C@H]3[NH]2)[O]C1=O [OXP, oxaliplatin]	200 µM	17.5 µM	8.02 µM	2 µM	28.2 µM	14.6 µM	27.2 µM	9.98 µM	64.76%	21.0%	1.37 µM	significant decline all the time	68.82%	60%	2.8 µM				IC50 [5]: 12.7 µM and > 20 µM
CN(C)Cc1c[nH]c2ccccc12 [GM, gramine]							> 100 µM												IC50 ([2]; Homo sapiens, MCF7, 72 hours): > 100 µM; IC50 ([6]; Homo sapiens, MDA-MB-231): > 100 µM; IC50 ([7]; Homo sapiens, HeLa): > 100 µM; IC50 ([8]; Homo sapiens, HCT-116, 72 hours): > 100 µM
CCCCCCCCCCCCNC(=O)[O][Pt]([NH2])([NH2])([Cl])([Cl])[O]C(=O)CCC(=O)n1cc(CN(C)C)c2ccccc21 [Compound c]														100%		100%	severe damage to tumor tissues	100%	body weight change of mice (KPC tumor model; mouse, in vivo): substantially stable body weight; immunohistochemical staining of mouse spleens (CD4+, CD8+, Foxp3 Treg cells) (4T1-Luc tumor model; 4T1-Luc, Pt 2.0 mg/kg): increasing the number of CD4+ and CD8+ cells, while decreasing the number of Treg cells; tumor growth (tumor volume, tumor weight) (4T1-Luc tumor model; [19]): significantly inhibited tumor growth; platinum accumulation in tissues (ICP-MS) (4T1-Luc tumor model; mouse, in vivo): significantly decreased the accumulation in the kidney and spleen; body weight change of mice ([10]; mouse, in vivo): weight recovery and stability from Day 9 post-treatment; platinum accumulation in tissues (ICP-MS) ([10]; mouse, in vivo): significantly decreased the accumulation in the kidney and spleen
cisplatin [CDDP]	603 µM	5.9 µM	127 µM	500 µM	15.8 µM	4.94 µM	3.99 µM	8.79 µM	55.67%	24.3%	420 µM	significant decline all the time	32.68%	40%	500 µM	all died finally	severe damage to tumor tissues	16.67%	IC50 [12]: 5.55 µM; selectivity index IC50 (LO2)/IC50 (MDA-MB-231) ([6]; tumor cell line MDA-MB-231 versus normal cell line LO2): 0.25; IC50 [13]: 1.35 µM; IC50 [14]: 1.57 µM; body weight change of mice (KPC tumor model; [17]): more significant decline; IC50 [15]: > 20 µM; H&E staining: damage to mouse organs (4T1-Luc tumor model; 4T1-Luc, Pt 2.0 mg/kg): severe damage to the spleen, kidney, and liver; body weight change of mice (4T1-Luc tumor model; [19]): significant decline; IC50 [16]: 1.93 µM
